From patent EP0942896B1, “SUBSTITUTED PHENOLS AND THIOPHENOLS USEFUL AS ANTIOXIDANT AGENTS” (Aventis Pharmaceuticals Inc., priority 1996, dated 1998) come the findings set out here.

Each structure is given as a SMILES string.

For the first series, the system named is Male Sprague-Dawley Rats. The series can be described thus: Serum clinical chemistries in rats fed compound as dietary admixture. It is filed as in vivo. To be noted: % of control; alanine aminotransferase in rat serum; diet 0.3%, 4 days; N = 5. An excerpt: (§1) A typical experiment consists of 4-6 groups of rats (N = 5 per group) with I group being a control which receives no MDL compound and the other groups being treated with 0.3% MDL compound. Some of the compounds are either repeated at 0.3% or evaluated again at the lower dose of 0.1%. House Male Sprague-Dawley rats, 50-100 g, (Harlan Laboratories, Indianapolis, IN) in groups of 5, feeding ad libitum water and Purina Rodent chow (#5002) with or without MDL compound as a dietary admixture for 4 days. Make dietary admixtures (0.3%) by mixing 1.2 grams of an MDL compound with 400 grams of Purina rodent chow (#5002). Mix the MDL compound with approximately 50 grams of food using a mortar and pestle. This is added to the remainder of the food and mixed for 3 hours on a rotary mixer. In the morning of day 5, anesthetize non-fasted rats with carbon dioxide, and collect blood by cardiac puncture. Sacrifice rats by cervical dislocation. Record body weights and liver weights in grams. Record food consumption as grams • day^-1 • rat^-1. Deaths are recorded as mortality. Use aliquots of fresh serum for clinical chemistries, thiobarbituric acid reactive substances (TBARS) and conjugated diene measurements. Freeze aliquots of serum (∼ 0.5mL) and whole livers at -20°C for compound and metabolite concentration determination at a later time.
Allow blood to clot at room temperature for 30 minutes. Obtain serum after centrifugation for 10 min at 4°C at 3000 rpm in a Beckman J-6M/E centrifuge with a JS-4.2 rotor. Analyze fresh serum by a COBAS MIRA S autoanalyzer (Roche Diagnostics) using Roche diagnostic reagents for the following clinical chemistry measurements: alkaline phosphatase (ALP, kit # 44553), alanine transaminase (ALT, kit # 42375), aspartate aminotransferase (AST, kit # 42381), total cholesterol (CHOL, kit # 44334), triglyceride (TG, kit # 44120), and glucose (GLU, kit # 44558). Calculate ALP, ALT, and AST as units/L. Calculate cholesterol, triglycerides, and glucose as mg/dL.
In the case of `CC(C)=CCC[C@H](C)CCSc1ccc(O)c(C(C)(C)C)c1` [MDL 103,714, Phenol, 2-(1,1-dimethylethyl)-4-[(3,7-dimethyl-6-octenyl)thio]-, (S)-], the ALT is 120%.
Regarding `CC(C)CCCC(C)CCOc1cc(C(C)(C)C)c(O)c(C(C)(C)C)c1` (stereo not drawn) [MDL 104,102, Phenol, 2,6-bis(1,1-dimethylethyl)-4-[(3,7-dimethyloctyl)oxy]-], the ALT was 114%.

Still in this series, the particulars now being: % of control; alkaline phosphatase in rat serum; diet 0.3%, 4 days; N = 5.
Take `CC(C)=CCC[C@H](C)CCSc1ccc(O)c(C(C)(C)C)c1` [MDL 103,714, Phenol, 2-(1,1-dimethylethyl)-4-[(3,7-dimethyl-6-octenyl)thio]-, (S)-]: the ALP was found to be 111%.
With `CC(C)CCCC(C)CCOc1cc(C(C)(C)C)c(O)c(C(C)(C)C)c1` (stereo not drawn) [MDL 104,102, Phenol, 2,6-bis(1,1-dimethylethyl)-4-[(3,7-dimethyloctyl)oxy]-], the ALP was 101%.

Still in this series, the particulars now being: % of control; aspartate aminotransferase in rat serum; diet 0.3%, 4 days; N = 5.
`CC(C)=CCC[C@H](C)CCSc1ccc(O)c(C(C)(C)C)c1` [MDL 103,714, Phenol, 2-(1,1-dimethylethyl)-4-[(3,7-dimethyl-6-octenyl)thio]-, (S)-]: the AST came to 104%.
Regarding `CC(C)CCCC(C)CCOc1cc(C(C)(C)C)c(O)c(C(C)(C)C)c1` (stereo not drawn) [MDL 104,102, Phenol, 2,6-bis(1,1-dimethylethyl)-4-[(3,7-dimethyloctyl)oxy]-], the AST turned out to be 82%.

The same series, now with this note: % of control; glucose in rat serum; diet 0.3%, 4 days; N = 5.
Take `CC(C)=CCC[C@H](C)CCSc1ccc(O)c(C(C)(C)C)c1` [MDL 103,714, Phenol, 2-(1,1-dimethylethyl)-4-[(3,7-dimethyl-6-octenyl)thio]-, (S)-]: the GLUC was determined as 95%.
As to `CC(C)CCCC(C)CCOc1cc(C(C)(C)C)c(O)c(C(C)(C)C)c1` (stereo not drawn) [MDL 104,102, Phenol, 2,6-bis(1,1-dimethylethyl)-4-[(3,7-dimethyloctyl)oxy]-], the GLUC is listed as 98%.

Staying with this series, now noted: feed or water, 96 h; % of control; total cholesterol in rat serum; diet 0.3%, 4 days; N = 5; read-out: CHOL.
Take `CC(C)=CCC[C@H](C)CCSc1ccc(O)c(C(C)(C)C)c1` [MDL 103,714, Phenol, 2-(1,1-dimethylethyl)-4-[(3,7-dimethyl-6-octenyl)thio]-, (S)-]: the response vs control in vivo at 0.3 % in diet came to 90%.
As for `CC(C)CCCC(C)CCOc1cc(C(C)(C)C)c(O)c(C(C)(C)C)c1` (stereo not drawn) [MDL 104,102, Phenol, 2,6-bis(1,1-dimethylethyl)-4-[(3,7-dimethyloctyl)oxy]-], the response vs control in vivo at 0.3 % in diet is 100%.

Staying with this series, now noted: feed or water, 96 h; % of control; triglycerides in rat serum; diet 0.3%, 4 days; N = 5; read-out: TRIG.
For `CC(C)=CCC[C@H](C)CCSc1ccc(O)c(C(C)(C)C)c1` [MDL 103,714, Phenol, 2-(1,1-dimethylethyl)-4-[(3,7-dimethyl-6-octenyl)thio]-, (S)-], the response vs control in vivo at 0.3 % in diet came to 122%.
For `CC(C)CCCC(C)CCOc1cc(C(C)(C)C)c(O)c(C(C)(C)C)c1` (stereo not drawn) [MDL 104,102, Phenol, 2,6-bis(1,1-dimethylethyl)-4-[(3,7-dimethyloctyl)oxy]-], the response vs control in vivo at 0.3 % in diet was 127%.

Another series relates to oxidation of serum lipids. The series can be described thus: TBARS assay on serum of treated rats (CuSO4-initiated oxidation). It is filed as in vivo, Male Sprague-Dawley rats. Conditions: % of control; thiobarbituric acid reactive substances as nmoles MDA, rat serum; diet 0.3%, 4 days; N = 5.
From the text: as §1
In this assay the oxidation of serum lipids is initiated with CuSO4, resulting in the formation of aldehydes, such as malondialdehyde (MDA). Upon incubation with thiobarbituric acid, the absorbance of the aldehydes can be detected at 530-540 nm. As stated in the previous example, TBARS values which are lower than control serum values indicate the relative ability of a test compound to inhibit the oxidation of lipids in a sample. Measure TBARS as follows: mix 100µL of serum with 400µL of a 5mmol CuSO4 solution and incubate at 37°C for 3 hr. Stop the reactions by addition of 1.0mL of 20% trichloroacetic acid. Then add 1.0mL of 0.67% thiobarbituric acid in 0.05 N sodium hydroxide, mix, and incubate the samples for 30 min at 90°C. Centrifuge samples briefly to pellet undissolved material, and transfer the supernatants to a 96-well microtiter plate. Measure absorbances at 540 nm using a Biotek model EL311 microplate reader. The nmoles of MDA produced are calculated from a standard curve of 0 to 10 nmoles of MDA prepared from malonaldehyde bis(dimethylacetal). Serum samples from treated rats are compared to serum samples from control rats that received no MDL compound.
Take `CC(C)=CCC[C@H](C)CCSc1ccc(O)c(C(C)(C)C)c1` [MDL 103,714, Phenol, 2-(1,1-dimethylethyl)-4-[(3,7-dimethyl-6-octenyl)thio]-, (S)-]: the TBARS was 21%.
`CC(C)CCCC(C)CCOc1cc(C(C)(C)C)c(O)c(C(C)(C)C)c1` (stereo not drawn) [MDL 104,102, Phenol, 2,6-bis(1,1-dimethylethyl)-4-[(3,7-dimethyloctyl)oxy]-] displayed a TBARS of 71%.

For a further series, the system named is oxidation of lipids. Description: Conjugated diene lag phase determination on pooled serum of treated rats. Type of series: in vivo, Male Sprague-Dawley rats. To be noted: not normalized, mean of 2 determinations of pooled rat serum (N = 5), diet 0.3%, 4 days.
From the text: as §1
Conjugated diene lag phase is another indicator of the oxidation of lipids. Lipids exposed to Cu^++ form conjugated dienes that absorb ultraviolet light in the range of 230 to 235 nm. The lag phase of diene formation gives an indication of the amount of oxidation of the lipids. A lag phase longer than control samples indicate inhibition of the oxidation. Determine conjugated diene lay phase using a Varian DMS200 spectrophotometer (fitted with a constant temperature, 5 cuvette sample changer) at 30°C. Add twenty (20) µL of pooled serum to cuvettes containing 3.0mL phosphate buffered saline, pH 7.5, and mix. Measure the absorbances of all cuvettes and set the instrument baseline to zero using the lowest absorbing sample. Next, add 100µL of 1 mmol CuSO4 and mix immediately. Record the absorbance of each cuvette at 2 min intervals for a period of 840 min. Capture the data and transfer to a Microsoft EXCEL® spreadsheet where the curves are smoothed and differentials obtained. Determine lag times mathematically as minutes. Pool serum samples (N = 5); data presented are the mean values of 2 determinations. Compare serum samples from treated rats to serum samples from control rats that received no MDL compound.
Regarding `CC(C)CCCC(C)CCOc1cc(C(C)(C)C)c(O)c(C(C)(C)C)c1` (stereo not drawn) [MDL 104,102, Phenol, 2,6-bis(1,1-dimethylethyl)-4-[(3,7-dimethyloctyl)oxy]-], the “CONJ. DIENE” value came out at 229 min.

Tested on in the next series: not listed separately
Description: Animal parameters (food, body weight, liver weight/body weight, mortality) in rats. It is filed as in vivo. To be noted: % of control; grams eaten per day per rat; diet 0.3%, 4 days; N = 5.
From the text: as §1
As for `CC(C)=CCC[C@H](C)CCSc1ccc(O)c(C(C)(C)C)c1` [MDL 103,714, Phenol, 2-(1,1-dimethylethyl)-4-[(3,7-dimethyl-6-octenyl)thio]-, (S)-], the food came out at 102%.
`CC(C)CCCC(C)CCOc1cc(C(C)(C)C)c(O)c(C(C)(C)C)c1` (stereo not drawn) [MDL 104,102, Phenol, 2,6-bis(1,1-dimethylethyl)-4-[(3,7-dimethyloctyl)oxy]-] registered a food of 92%.

The same series, now with this note: % of control; liver weight/body weight; rat; diet 0.3%, 4 days; N = 5.
For the molecule `CC(C)=CCC[C@H](C)CCSc1ccc(O)c(C(C)(C)C)c1` [MDL 103,714, Phenol, 2-(1,1-dimethylethyl)-4-[(3,7-dimethyl-6-octenyl)thio]-, (S)-], the lw/bw amounted to 121%.
Same read-out and setting: the value for `CC(C)CCCC(C)CCOc1cc(C(C)(C)C)c(O)c(C(C)(C)C)c1` (stereo not drawn) [MDL 104,102, Phenol, 2,6-bis(1,1-dimethylethyl)-4-[(3,7-dimethyloctyl)oxy]-] was 121%.

The same series, now with this note: % of control; weight in grams; rat; diet 0.3%, 4 days; N = 5.
`CC(C)=CCC[C@H](C)CCSc1ccc(O)c(C(C)(C)C)c1` [MDL 103,714, Phenol, 2-(1,1-dimethylethyl)-4-[(3,7-dimethyl-6-octenyl)thio]-, (S)-]: the body wt. turned out to be 103%.
Regarding `CC(C)CCCC(C)CCOc1cc(C(C)(C)C)c(O)c(C(C)(C)C)c1` (stereo not drawn) [MDL 104,102, Phenol, 2,6-bis(1,1-dimethylethyl)-4-[(3,7-dimethyloctyl)oxy]-], the body wt. stood at 97%.

The same series, now with this note: male, Sprague-Dawley, rat, in vivo, 4 days.
For `CC(C)=CCC[C@H](C)CCSc1ccc(O)c(C(C)(C)C)c1` [MDL 103,714, Phenol, 2-(1,1-dimethylethyl)-4-[(3,7-dimethyl-6-octenyl)thio]-, (S)-], the mortality (in general, the percentage killed) was 0%.
With `CC(C)CCCC(C)CCOc1cc(C(C)(C)C)c(O)c(C(C)(C)C)c1` (stereo not drawn) [MDL 104,102, Phenol, 2,6-bis(1,1-dimethylethyl)-4-[(3,7-dimethyloctyl)oxy]-], the mortality amounted to 0%.

Tested on in a further series: not listed separately
The series can be described thus: HPLC quantitation of compound and metabolite concentration in rat serum and liver. It is filed as in vivo. Conditions: male, Sprague-Dawley, oral, 0.3 % in chow; parent compound concentration in rat liver; diet 0.3%, 4 days; mean N = 5; read-out: Liver Parent.
From the text: as §1
Determine serum and liver concentrations of parent compound and the metabolites, bisphenol and diphenoquinone, by reverse phase HPLC using a Waters 990 Powerline system. Homegenize livers (1 gram samples) with 5.0mL PBS, pH 7.4, using a Polytron tissue homogenizer at setting 5 for 20-30 seconds. Extract serum or liver homogenates as follows: add 100µL of either serum or homogenate to 2.0mL diethyl ether: ethanol (3:1) while vortexing the tube. Cap the sample tubes and centrifuge for 10 min at 5°C at 3500 rpm in a Beckman GPKR centrifuge with a GH 3.7 rotor. Transfer the supernatants to clean tubes and dry under N2. Reconstitute samples with 200µL of acetonitrile : hexane : 0.1 M ammonium acetate (90: 6.5 : 3.5, by vol.). Then, inject 100µL onto a Waters Deltapak C18-300 Å column, and elute with an 83% acetonitrile : 17% water mobile phase at a flow rate of 1.5mL/min. Record absorbances at the wavelengths of 240, 254, and 420nm. Calculate compound concentrations from known quantities of authentic parent compounds after correction for recovery. […]. Calculate concentrations as µg/mL of serum and µg/g of liver.
Turning to `CC(C)=CCC[C@H](C)CCSc1ccc(O)c(C(C)(C)C)c1` [MDL 103,714, Phenol, 2-(1,1-dimethylethyl)-4-[(3,7-dimethyl-6-octenyl)thio]-, (S)-], the concentration at 5 day was 0 ng/g.
Same read-out and setting: as for `CC(C)CCCC(C)CCOc1cc(C(C)(C)C)c(O)c(C(C)(C)C)c1` (stereo not drawn) [MDL 104,102, Phenol, 2,6-bis(1,1-dimethylethyl)-4-[(3,7-dimethyloctyl)oxy]-], the figure is 481000 ng/g.

The series is the same for the next values; noted with them: male, Sprague-Dawley, oral, 0.3 % in chow; parent compound concentration in rat serum; diet 0.3%, 4 days; mean N = 5; read-out: Serum Parent.
Turning to `CC(C)=CCC[C@H](C)CCSc1ccc(O)c(C(C)(C)C)c1` [MDL 103,714, Phenol, 2-(1,1-dimethylethyl)-4-[(3,7-dimethyl-6-octenyl)thio]-, (S)-], the concentration at 5 day is 2700 ng/mL.
Take `CC(C)CCCC(C)CCOc1cc(C(C)(C)C)c(O)c(C(C)(C)C)c1` (stereo not drawn) [MDL 104,102, Phenol, 2,6-bis(1,1-dimethylethyl)-4-[(3,7-dimethyloctyl)oxy]-]: the concentration at 5 day was found to be 32800 ng/mL.
